Data: patent publication US10294202B2, “Pyrrolidinones as herbicides” (FMC Corporation, priority 2013, dated 2019)

Tests used:
barnyardgrass [1] = test: Test A pre-/postemergence herbicide test; assay type: in vivo, Echinochloa crus-galli; settings: for Plant response rating, Barnyardgrass: 0 to 100 scale
Summary of the method: (§1)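 Planted in loam–sand blend; treated the same day preemergence by directed soil spray, while separately grown plants at one- to two-leaf stage got postemergence spray. Compared visually with untreated controls after approximately 10 days; 100 means complete control.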

crabgrass, large = test: Test A pre-/postemergence herbicide test; assay type: in vivo, Digitaria sanguinalis; settings: for Plant response rating, Crabgrass, Large: 0 to 100 scale
Summary of the method: as §1

giant foxtail = test: Test A pre-/postemergence herbicide test; assay type: in vivo, Setaria faberii; settings: for Plant response rating, Foxtail, Giant: 0 to 100 scale
Summary of the method: as §1

morningglory = test: Test A pre-/postemergence herbicide test; assay type: in vivo, Ipomoea spp.; settings: for Plant response rating, Morningglory: 0 to 100 scale
Summary of the method: as §1

pigweed = test: Test A pre-/postemergence herbicide test; assay type: in vivo, Amaranthus retroflexus; settings: for Plant response rating, Pigweed: 0 to 100 scale
Summary of the method: as §1

velvetleaf = test: Test A pre-/postemergence herbicide test; assay type: in vivo, Abutilon theophrasti; settings: for Plant response rating, Velvetleaf: 0 to 100 scale
Summary of the method: as §1

wheat = test: Test A pre-/postemergence herbicide test; assay type: in vivo, Triticum aestivum; settings: for Plant response rating, Wheat: 0 to 100 scale
Summary of the method: as §1

corn = test: Test A pre-/postemergence herbicide test; assay type: in vivo, Zea mays; settings: for Plant response rating, Corn: 0 to 100 scale
Summary of the method: as §1

rice = test: Test B flooded paddy test; assay type: in vivo, Oryza sativa; settings: Flood, scale of 0 to 100 where 0 is no effect and 100 is complete control
Summary of the method: (§2)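 First, plants reach the 2-leaf stage; next, pots are flooded to 3 cm and compound is delivered into the water; finally, after 13 to 15 greenhouse days at constant depth, injury is graded visually from 0 to 100 against controls.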

sedge, umbrella = test: Test B flooded paddy test; assay type: in vivo, Cyperus difformis; settings: Flood, scale of 0 to 100 where 0 is no effect and 100 is complete control
Summary of the method: as §2

ducksalad = test: Test B flooded paddy test; assay type: in vivo, Heteranthera limosa; settings: Flood, scale of 0 to 100 where 0 is no effect and 100 is complete control
Summary of the method: as §2

barnyardgrass [2] = test: Test B flooded paddy test; assay type: in vivo, Echinochloa crus-galli; settings: Flood, scale of 0 to 100 where 0 is no effect and 100 is complete control
Summary of the method: as §2

[3] = 125 g ai/ha, visual rating, 0 no effect, 100 complete control, approximately 10 days, preemergence
[4] = Postemergence, 125 g ai/ha, 0 is no effect, 100 is complete control
[5] = preemergence, 500 g ai/ha, 0 is no effect and 100 is complete control

Row | Structure (SMILES) | Plant response rating, Barnyardgrass (barnyardgrass [1]; [3]) | Plant response rating, Barnyardgrass (barnyardgrass [1]; [4]) | Barnyardgrass plant response rating (0 to 100 scale, 0 is no effect, 100 is complete control) (barnyardgrass [1]; Postemergence, 500 g ai/ha) | Plant response rating, Barnyardgrass (barnyardgrass [1]; [5]) | Plant response rating, Crabgrass, Large (crabgrass, large; [3]) | Plant response rating, Crabgrass, Large (crabgrass, large; [4]) | Crabgrass, Large plant response rating (0 to 100 scale, 0 is no effect, 100 is complete control) (crabgrass, large; Postemergence, 500 g ai/ha) | Plant response rating, Crabgrass, Large (crabgrass, large; [5]) | Plant response rating, Foxtail, Giant (giant foxtail; [3]) | Plant response rating, Foxtail, Giant (giant foxtail; [4]) | Foxtail, Giant plant response rating (0 to 100 scale, 0 is no effect, 100 is complete control) (giant foxtail; Postemergence, 500 g ai/ha) | Plant response rating, Foxtail, Giant (giant foxtail; [5]) | Plant response rating, Morningglory (morningglory; [3]) | Plant response rating, Morningglory (morningglory; [4]) | Morningglory plant response rating (0 to 100 scale, 0 is no effect, 100 is complete control) (morningglory; Postemergence, 500 g ai/ha) | Plant response rating, Morningglory (morningglory; [5]) | Plant response rating, Pigweed (pigweed; [3]) | Plant response rating, Pigweed (pigweed; [4]) | Pigweed plant response rating (0 to 100 scale, 0 is no effect, 100 is complete control) (pigweed; Postemergence, 500 g ai/ha) | Plant response rating, Pigweed (pigweed; [5]) | other results
1 | COc1cc(C2CNC(=O)C2C(=O)Nc2cccc(F)c2F)ccc1F (racemic) [Compound 195] | 30 | 80 | 90 | 90 | 90 | 80 | 80 | 90 | 80 | 30 | 70 | 90 | 0 | 0 | 0 | 0 | 0 | 0 | 0 | 0 | Plant response rating, Velvetleaf (velvetleaf; [3]): 0; Plant response rating, Velvetleaf (velvetleaf; [4]): 0; Velvetleaf plant response rating (0 to 100 scale, 0 is no effect, 100 is complete control) (velvetleaf; Postemergence, 500 g ai/ha): 0; Plant response rating, Velvetleaf (velvetleaf; [5]): 0; Plant response rating, Wheat (wheat; [3]): 0; Plant response rating, Wheat (wheat; [4]): 0; Wheat plant response rating (0 to 100 scale, 0 is no effect, 100 is complete control) (wheat; Postemergence, 500 g ai/ha): 30; Plant response rating, Wheat (wheat; [5]): 0; Plant response rating, Corn (corn; [3]): 0; Plant response rating, Corn (corn; [4]): 0; Corn plant response rating (0 to 100 scale, 0 is no effect, 100 is complete control) (corn; Postemergence, 500 g ai/ha): 0; Plant response rating, Corn (corn; [5]): 0; Plant response rating, Rice (rice; 250 g ai/ha): 0; Plant response rating, Rice (rice; 1000 g ai/ha): 15; Plant response rating, Sedge, Umbrella (sedge, umbrella; 250 g ai/ha): 0; Plant response rating, Sedge, Umbrella (sedge, umbrella; 1000 g ai/ha): 0; Plant response rating, Ducksalad (ducksalad; 250 g ai/ha): 35; Plant response rating, Ducksalad (ducksalad; 1000 g ai/ha): 100; Plant response rating, Barnyardgrass (barnyardgrass [2]; 250 g ai/ha): 30; Plant response rating, Barnyardgrass (barnyardgrass [2]; 1000 g ai/ha): 70
2 | COc1cc(C2CNC(=O)C2C(=O)Nc2ccccc2C(F)(F)F)ccc1F (racemic) [Compound 196] | 0 | 30 | 80 | 70 | 90 | 70 | 80 | 100 | 80 | 20 | 70 | 90 | 0 | 0 | 0 | 0 | 0 | 0 | 0 | 0 | Plant response rating, Velvetleaf (velvetleaf; [3]): 0; Plant response rating, Velvetleaf (velvetleaf; [4]): 0; Velvetleaf plant response rating (0 to 100 scale, 0 is no effect, 100 is complete control) (velvetleaf; Postemergence, 500 g ai/ha): 0; Plant response rating, Velvetleaf (velvetleaf; [5]): 0; Plant response rating, Wheat (wheat; [3]): 0; Plant response rating, Wheat (wheat; [4]): 0; Wheat plant response rating (0 to 100 scale, 0 is no effect, 100 is complete control) (wheat; Postemergence, 500 g ai/ha): 0; Plant response rating, Wheat (wheat; [5]): 0; Plant response rating, Corn (corn; [3]): 0; Plant response rating, Corn (corn; [4]): 0; Corn plant response rating (0 to 100 scale, 0 is no effect, 100 is complete control) (corn; Postemergence, 500 g ai/ha): 0; Plant response rating, Corn (corn; [5]): 0; Plant response rating, Rice (rice; 250 g ai/ha): 0; Plant response rating, Rice (rice; 1000 g ai/ha): 0; Plant response rating, Sedge, Umbrella (sedge, umbrella; 250 g ai/ha): 0; Plant response rating, Sedge, Umbrella (sedge, umbrella; 1000 g ai/ha): 0; Plant response rating, Ducksalad (ducksalad; 250 g ai/ha): 0; Plant response rating, Ducksalad (ducksalad; 1000 g ai/ha): 90; Plant response rating, Barnyardgrass (barnyardgrass [2]; 250 g ai/ha): 0; Plant response rating, Barnyardgrass (barnyardgrass [2]; 1000 g ai/ha): 20
3 | COc1ccc(C2CNC(=O)C2C(=O)Nc2cccc(F)c2F)cc1F (racemic) [Compound 198] | 50 | 50 | 80 | 90 | 90 | 50 | 80 | 100 | 50 | 10 | 60 | 80 | 0 | 0 | 0 | 0 | 0 | 0 | 0 | 0 | Plant response rating, Velvetleaf (velvetleaf; [3]): 0; Plant response rating, Velvetleaf (velvetleaf; [4]): 0; Velvetleaf plant response rating (0 to 100 scale, 0 is no effect, 100 is complete control) (velvetleaf; Postemergence, 500 g ai/ha): 0; Plant response rating, Velvetleaf (velvetleaf; [5]): 0; Plant response rating, Wheat (wheat; [3]): 0; Plant response rating, Wheat (wheat; [4]): 0; Wheat plant response rating (0 to 100 scale, 0 is no effect, 100 is complete control) (wheat; Postemergence, 500 g ai/ha): 0; Plant response rating, Wheat (wheat; [5]): 0; Plant response rating, Corn (corn; [3]): 0; Plant response rating, Corn (corn; [4]): 0; Corn plant response rating (0 to 100 scale, 0 is no effect, 100 is complete control) (corn; Postemergence, 500 g ai/ha): 0; Plant response rating, Corn (corn; [5]): 0; Plant response rating, Rice (rice; 250 g ai/ha): 0; Plant response rating, Rice (rice; 1000 g ai/ha): 15; Plant response rating, Sedge, Umbrella (sedge, umbrella; 250 g ai/ha): 0; Plant response rating, Sedge, Umbrella (sedge, umbrella; 1000 g ai/ha): 0; Plant response rating, Ducksalad (ducksalad; 250 g ai/ha): 70; Plant response rating, Ducksalad (ducksalad; 1000 g ai/ha): 95; Plant response rating, Barnyardgrass (barnyardgrass [2]; 250 g ai/ha): 0; Plant response rating, Barnyardgrass (barnyardgrass [2]; 1000 g ai/ha): 65
